Residues, ends and D or L forms follow the SMILES beside them.
Assay: toxic or side effect on mice after injection for several times (serum biochemistry)
Type: in vivo, C57 mice
Description: During sampling of the mice with myocardial infarction modeling for 4 weeks and intramyocardial injection of the polypeptide PAFRK29 for 5 times in Example 6, peripheral blood of the mice was collected into an anticoagulant tube and centrifuged at 1,000 g for 10 minutes. Serum of a supernatant was taken, and levels of blood urea nitrogen (BUN), serum alanine aminotransferase (ALT) and serum aspartate aminotransferase (AST) were determined by an automatic biochemical analyzer.

[1] = myocardial infarction mice, 4 weeks, intramyocardial injection 5 times, vs control group

## CC(C)[C@H](NC(=O)[C@@H]1CCCN1C(=O)[C@H](Cc1c[nH]cn1)NC(=O)[C@H](CCCCN)NC(=O)[C@H](Cc1ccc(O)cc1)NC(=O)[C@H](CCC(N)=O)NC(=O)[C@H](CCCNC(=N)N)NC(=O)[C@H](CO)NC(=O)[C@H](Cc1c[nH]cn1)NC(=O)[C@H](Cc1ccccc1)NC(=O)[C@H](Cc1ccc(O)cc1)NC(=O)[C@H](CCC(N)=O)NC(=O)CNC(=O)[C@H](CCC(N)=O)NC(=O)[C@H](Cc1ccccc1)NC(=O)[C@H](CCCNC(=N)N)NC(=O)[C@H](CCCNC(=N)N)NC(=O)[C@H](CCCNC(=N)N)NC(=O)[C@H](CCC(N)=O)NC(=O)[C@H](CCCNC(=N)N)NC(=O)[C@H](CCCNC(=N)N)NC(=O)[C@H](CCCCN)NC(=O)[C@H](CCCCN)NC(=O)[C@@H](N)CCCNC(=N)N)C(=O)NCC(=O)N[C@@H](Cc1ccc(O)cc1)C(=O)N[C@@H](CCC(=O)O)C(=O)NCC(=O)N[C@@H](CCCCN)C(=O)O [PAFRK29] (H-RKKRRQRRRFQGQYFHSRQYKHPVGYEGK-OH; N-terminus and C-terminus assumed)
At an effective anti-fibrosis dose
  toxic or side effect on the mice: no obvious toxic or side effect
[1]
  level of blood urea nitrogen (BUN): no obvious differences
  level of serum alanine aminotransferase (ALT): no obvious differences
  level of serum aspartate aminotransferase (AST): no obvious differences

From patent US20250066425A1, “POLYPEPTIDE AND APPLICATION THEREOF IN PREPARATION OF ANTI-FIBROSIS DRUG” (priority 2022, published 2025)
